Source: patent US10155738B2, “Methods for skin whitening using a gallotannin” (RHODE ISLAND BOARD OF EDUCATION, STATE OF RHODE ISLAND & …, priority 2014, dated 2018)

How the values were obtained:
[1] = target: mushroom tyrosinase; assay: Tyrosinase enzyme inhibition assay; type: biochemical; conditions: pure compounds; mean ± S.D., triplicate independent experiments
Experimental: Maplifa was prepared by new methods developed in the laboratory. Briefly, leaves of red maple were dried and macerated in aqueous ethanol to obtain the crude extract which was then further purified on a resin column to remove chlorophyll and other plant pigments.

[2] = system: B16F10 cells; assay: MTS cell viability assay; type: cell-based, murine; conditions: 72 h; for B16F10 cell viability: vs untreated control
Experimental: To further investigate the anti-melanogenic activities of ginnalinginnalins A-C, present in the Maplifa extract, cellular based assay were employed to measure the melanin content on murine melanoma B16F10 cells. In order to determine the non-toxic concentrations of ginnalinginnalins for cellular assays, cell viability on B16F10 cells were first evaluated by using MTS assay. The MTS assay was carried out as described previously with modifications. At the end of either 24, 48 or 72 h of treatment with test samples (in the concentration range of 1-100 μM for purified gallotannins and 6.25-200 μg/mL for Maplifa extract), 20 μL of the MTS reagent, in combination with the electron coupling agent, phenazine menthosulfate, were added to the wells and cells were incubated at 37° C. in a humidified incubator for 3 h. Absorbance at 490 nm was monitored with a spectrophotometer (SpectraMax M2, Molecular Devices Corp., operated by SoftmaxPro v.4.6 software, CA, USA) to obtain the number of cells relative to control populations. […] Data was presented as mean values±S.D. and were obtained from three separate experiments. Two-tailed unpaired student's t-test was used for statistical analysis of the data using the Office Excel 2010 software. A p value <0.05 was considered significant.
Murine melanoma B16F10 was purchased from the American Type Culture Collection (Rockville, Md.). Cells were cultured in Dulbecco's Modified Eagle Medium (DMEM) medium (Wilkem Scientific, R.I.) that was supplemented with 10% v/v fetal bovine serum, 1% v/v nonessential amino acids and 1% v/v antibiotic solution at 37° C. in 5% CO2. Samples were dissolved at a concentration of 50 mg/mL in dimethylsulfoxide (DMSO) as stock solution and then diluted to the desired final concentrations with growth medium. […]
Melanoma B16F10 cells were treated with serial concentrations of Maplifa (6.25, 12.5, 25, 50, 100, and 200 μg/mL) for 48 and 72 h. In addition, various concentrations (0, 5, 10, 25, and 50 μM) of ginnalinginnalins A-C for 72 h and the cell viabilities were determined by comparing with the untreated control group. […]

[3] = system: B16F10 cells; assay: Melanin content in B16F10 cells; type: cell-based, murine; conditions: for melanin content compared to control group: 72 h
Experimental: The contents of biosynthesized melanin in melanoma B16F10 cells that treated with ginnalinginnalins A-C at serial concentrations were evaluated by comparing with the control group. The melanin content was determined using a modification of the method described by Liang and Ho. Briefly, B16F10 cells (5×10^4 cells/well) were first seeded in 24-well plates for 24 h and then medium was changed with new DMEM medium containing test samples of various concentrations. After 72 h incubation, the cells were harvested through trypsinization and washed with phosphate-buffered saline (PBS) twice. Then cells were lyzed with 1 N NaOH containing 10% DMSO and heated at 80° C. for 1 h. After samples cooled down to room temperature, the amount of melanin content was spectrophotometrically measured at 400 nm.

[4] = system: MITF; assay: mRNA expression by real-time PCR in B16F10 cells; type: cell-based, murine; conditions: 10 μM, 48 h and 72 h
Experimental: (§1) Melanin biosynthesis involves multi-step pathways. In order to determine the molecular mechanisms of inhibitory effects of ginnalins on melanin synthesis, expression levels of melanogenesis related genes, including MITF, TYR, TRP-1 and TRP-2, in B16F10 cells were analyzed by using RT-PCR. The B16F10 cells were planted in 6-well plates at a density of 2.0×10^5 cells/well. After being incubated for 24 h, cells were treated with 2 or 10 μM of ginnalins for 48 or 72 h. Total RNA was isolated from cells using TRIzol reagent (Invitrogen) according to the manufacturer's instructions. One microgram of total RNA was converted to single-stranded cDNA using oligo(dT)18 primers, and mRNA levels were quantified by quantitative real-time PCR using a Roche LightCycler detection system (Roche Applied Science, Mannheim, Germany). Samples were run by using SYBR Green and compared with levels of b2m rRNA as a reference housekeeping gene. Quantitative real-time PCR conditions were optimized for each gene using appropriate forward and reverse primers. The primers used are listed in Supplemental material. All oligonucleotides were synthesized by Invitrogen Inc., CA.

[5] = system: TRP-1; assay: mRNA expression by real-time PCR in B16F10 cells; type: cell-based, murine; conditions: 10 μM, 48 h and 72 h
Experimental: as §1

[6] = system: TRP-2; assay: mRNA expression by real-time PCR in B16F10 cells; type: cell-based, murine; conditions: 10 μM, 48 h and 72 h
Experimental: as §1

[7] = system: TYR; assay: mRNA expression by real-time PCR in B16F10 cells; type: cell-based, murine; conditions: 10 μM; for TYR mRNA expression: 48 h and 72 h
Experimental: as §1

[8] = system: TRP-2; assay: Protein expression by Western blot in B16F10 cells; type: cell-based, murine; conditions: 10 μM, 72 hours
Experimental: Furthermore, the regulation of ginnalins on the protein expressions of melanogenesis related enzymes in B16F10 cells were evaluated by using Western blot. Expressions of melanin biosynthesis-related proteins, including MITF, TYR, TRP-1 and TRP-2 expression in B16F10 cells were measured by western blot. After incubation with ginnalins for 72 h, proteins from cells were resolved by SDS-PAGE and then transferred to polyvinylidene fluoride membrane. The membrane was blocked with 5% nonfat dry milk in Tris-buffered saline with Tween followed by incubation with primary antibodies overnight. Bands were visualized on X-ray film using an ECL detection kit (Amersham Biosciences, Piscataway, N.J.). A list of antibody, source, and dilution is listed in Supplementary material.

Row | Structure (SMILES) | IC50 [1] [µM] | B16F10 cell viability ([2]; 25 μM) [%] | B16F10 cell viability ([2]; 50 μM) [%] | toxicity to B16F10 cells ([2]; low concentrations (5 and 10 μM)) | melanin content compared to control group ([3]; 25 μM) [%] | effect on melanin content ([3]; 50 μM) | melanin content compared to control group ([3]; 50 μM) [%] | MITF mRNA expression [4] | TRP-1 mRNA expression [5] | TRP-2 mRNA expression [6] | TYR mRNA expression [7] | decrease of TRP-2 protein expression [8] [%] | anti-melanogenic effects in B16F10 cells [3] | decrease of TYR mRNA expression ([7]; 48 hours) [%] | decrease of TYR mRNA expression ([7]; 72 hours) [%]
1 | O=C(OC[C@H]1OC[C@H](OC(=O)c2cc(O)c(O)c(O)c2)[C@@H](O)[C@@H]1O)c1cc(O)c(O)c(O)c1 [Ginnalin A] | 182 | 87.0 | 89.5 | non-toxic | 79.1 | clearly reduced | 56.7 | significantly reduced | significantly reduced | significantly reduced | significantly reduced | 87.9 |  |  | 
2 | O=C(O[C@H]1CO[C@H](CO)[C@@H](O)[C@@H]1O)c1cc(O)c(O)c(O)c1 [Ginnalin C] | 858 |  |  |  | 89.7 |  | 68.8 | significantly down-regulated | did not reduce | only slightly decreased | only slightly decreased | 69.5 | only minor anti-melanogenic effects |  | 
3 | OC[C@H]1O[C@@H](Oc2ccc(O)cc2)[C@H](O)[C@@H](O)[C@@H]1O [Arbutin, reference compound] | 63 ± 0.3 |  |  |  |  |  |  |  |  |  |  |  |  |  | 
4 | O=C(OC[C@H]1OC[C@H](O)[C@@H](O)[C@@H]1O)c1cc(O)c(O)c(O)c1 [Ginnalin B] | 1050 |  |  |  | 90.0 |  | 90.0 | significantly decreased | significantly decreased | significantly decreased |  | 92.0 | only minor anti-melanogenic effects | 10.0 | 7.5
